Results as given in patent US6187810A, “Macrocyclic compounds made from suboxide units” (Donatur Dr. Kerek GmbH, priority 1996, dated 2001).
Where two headings read alike, the source gives them in different places.

Experiments:
mice = settings: cited from earlier work; for toxicity in words (blood toxin, irritation): mouse, in vivo
hemoglobin = settings: cited from earlier work
[1] = Acute toxicity of cardiac glycosides applied together with the active substances; type: in vivo
Description: Furthermore, as was experimentally established, the active substances according to the invention are capable to control the activity of several other essential enzymes, for example collegenases, hyaluronidases, phosphokinases and other enzymes. According to all indications, the active substances according to the invention are useable as endogenous ligands of the Na^+,K^+ -ATPase enzyme.

## O=C=C=C=O [C3 O2, carbon suboxide]
mice; C3 O2 in dry air
  tolerability limit in mice: 0.2-0.4%
mice
  toxicity in words (blood toxin, irritation): irritating to mucus membranes
mice; listed as Carbon suboxide
  toxicity in words (blood toxin, irritation): relatively strong blood toxin
hemoglobin
  binding to hemoglobin: irreversibly binds hemoglobin

## C[C@@H]1O[C@@H](O[C@H]2CC[C@]3(C=O)[C@H]4CC[C@]5(C)[C@@H](c6ccc(=O)oc6)CC[C@]5(O)[C@@H]4CC[C@]3(O)C2)[C@H](O)[C@H](O)[C@H]1O[C@@H]1O[C@H](CO)[C@@H](O)[C@H](O)[C@H]1O [hellebrin]
[1]; with active substances at molar ratio 0.02 to 2/1 mol glycoside, preferably 1:1
  LD50: considerably higher

## C[C@@H]1O[C@@H](O[C@H]2C[C@@H](O)[C@]3(CO)[C@H]4[C@H](O)C[C@]5(C)[C@@H](C6=CC(=O)OC6)CC[C@]5(O)[C@@H]4CC[C@]3(O)C2)[C@H](O)[C@H](O)[C@H]1O [ouabain]
[1]; active substances applied together with the glycoside
  toxic side-effects of cardiac glycoside: reduction of the toxic side-effects
